Data as given in patent publication US20250144067A1, “PERSONALIZED STARVATION THERAPY FOR CANCER” (Faeth Therapeutics, Inc., priority 2021, published 2025).
Where a name gives a salt, the structure may show the parent alone.

Tests used:
[1] = system: NCI-H292 lung cancer cells; experiment: FDA drug screening, complete media vs cholesterol-free media with simvastatin (TABLE 2); assay type: cell-based, human; conditions: for Cholesterol-free media + simvastatin (0.04 μM) / Complete Media: NCI-H292 cells
[2] = system: NCI-H292 lung cancer cells; experiment: FDA drug screening, complete media vs cholesterol-free media without statin (TABLE 1); assay type: cell-based, human
[3] = FDA drug library screen, cholesterol-free media with simvastatin 0.04 μM
[4] = FDA drug library screen, complete media
[5] = complete media vs cholesterol-free media + simvastatin (0.04 μM), >0 enhanced anti-cancer activity, about 0 neutral, <0 antagonist
[6] = NCI-H292 cells, cholesterol-free media without statin
[7] = complete vs cholesterol-free media, greater than 0 enhanced anti-cancer activity, about 0 neutral, below 0 antagonists
[8] = NCI-H292 cells, cholesterol-free media without statin, FDA drug library screen
[9] = NCI-H292 cells, complete media, FDA drug library screen
[10] = complete vs cholesterol-free media, >0 enhanced anti-cancer activity, about 0 neutral, <0 antagonist
[11] = FDA library drug in cholesterol-free media with simvastatin 0.04 μM
[12] = FDA library drug in complete media
[13] = Complete minus Cholesterol-free, >0 enhanced anti-cancer activity, about 0 neutral, <0 antagonist
[14] = complete media minus cholesterol-free media + simvastatin, >0 enhanced anti-cancer activity, about 0 neutral, <0 antagonist
[15] = drug in cholesterol-free media with simvastatin 0.04 μM
[16] = Complete minus Cholesterol-free, greater than 0 enhanced anti-cancer activity, about 0 neutral, below 0 antagonists
[17] = NCI-H292 cells in cholesterol-free media without statin
[18] = NCI-H292 cells in complete media
[19] = cholesterol-free media with simvastatin 0.04 μM, FDA drug library screen (TABLE 2)
[20] = complete media, FDA drug library screen (TABLE 2)
[21] = complete media minus cholesterol-free media + simvastatin (0.04 μM), >0 enhanced anti-cancer activity, about 0 neutral, <0 antagonist
[22] = cholesterol-free media with simvastatin 0.04 μM, cell growth value in FDA drug screen
[23] = complete media, cell growth value in FDA drug screen
[24] = Complete minus Cholesterol-free, greater than 0 enhanced anti-cancer activity, about 0 neutral, below 0 antagonist
[25] = NCI-H292 cells, FDA drug library screen, cholesterol-free media without statin
[26] = NCI-H292 cells, FDA drug library screen, complete media
[27] = Complete minus Cholesterol-free, […]

Row | SMILES | Cholesterol-free media + simvastatin (0.04 μM) [1, 3] | Complete Media [1, 4] | Difference [1, 5] | Cholesterol-free [2, 6] | Complete ([2]; NCI-H292 cells, complete media) | Cholesterol-free [2, 8] | Complete [2, 9] | Difference [2, 13] | further results
1 | CC(=O)OCC(=O)NCCCOc1cccc(CN2CCCCC2)c1.Cl [Roxatidine (Acetate Hydrochloride)] | 1.117 | 1.004 | −0.11 | 1.511 | 1.141 | – | – | – | Difference [2, 7]: −0.37
2 | CC[C@H]1OC(=O)[C@H](C)[C@@H](O[C@H]2C[C@@](C)(OC)[C@@H](O)[C@H](C)O2)[C@H](C)[C@@H](O[C@@H]2O[C@H](C)C[C@H](N(C)C)[C@H]2O)[C@](C)(O)C[C@@H](C)/C(=N\OCOCCOC)[C@H](C)[C@@H](O)[C@]1(C)O [Roxithromycin] | 0.9837 | 0.8382 | −0.15 | – | – | 0.9904 | 1.336 | – | Difference [2, 10]: 0.35
3 | CNCc1ccc(-c2[nH]c3cc(F)cc4c3c2CCNC4=O)cc1 [Rucaparib (Camsylate)] | – | – | −0.28 | 1.063 | 0.7996 | – | – | −0.26 | Cholesterol-free media + simvastatin (0.04 μM) [1, 11]: 1.277; Complete Media [1, 12]: 0.994
4 | CNCc1ccc(-c2[nH]c3cc(F)cc4c3c2CCNC4=O)cc1 [Rucaparib] | – | – | −0.34 | – | – | 0.9041 | 0.881 | −0.02 | Cholesterol-free media + simvastatin (0.04 μM) [1, 11]: 1.04; Complete Media [1, 12]: 0.7044
5 | NC(=O)c1cn(Cc2c(F)cccc2F)nn1 [Rufinamide] | 0.995 | 0.8999 | −0.10 | – | – | 0.9822 | 0.9785 | 0.00 | –
6 | CN1CCN(c2c(F)cc3c(=O)c(C(=O)O)cn4c3c2SCC4)CC1 [Rufloxacin hydrochloride] | 0.949 | 1.098 | – | 1.291 | 1.016 | – | – | −0.28 | Difference [1, 14]: 0.15
7 | C[C@@H]1O[C@@H](OC[C@H]2O[C@@H](Oc3c(-c4ccc(O)c(O)c4)oc4cc(O)cc(O)c4c3=O)[C@H](O)[C@@H](O)[C@@H]2O)[C@H](O)[C@H](O)[C@H]1O [Rutin] | – | – | −0.22 | – | – | 1.229 | 1.309 | – | Cholesterol-free media + simvastatin (0.04 μM) [1, 15]: 1.71; Complete Media ([1]; drug in complete media): 1.488; Difference [2, 10]: 0.08
8 | N#CC[C@H](C1CCCC1)n1cc(-c2ncnc3[nH]ccc23)cn1 [Ruxolitinib (S enantiomer)] | – | – | −0.26 | – | – | – | – | – | Cholesterol-free media + simvastatin (0.04 μM) [1, 15]: 0.9634; Complete Media ([1]; drug in complete media): 0.7007; Difference [2, 16]: −0.48; Cholesterol-free [2, 17]: 1.03; Complete [2, 18]: 0.5541
9 | N#CC[C@H](C1CCCC1)n1cc(-c2ncnc3[nH]ccc23)cn1 [Ruxolitinib] | 0.6455 | 0.5664 | −0.08 | – | – | 0.6188 | 0.6101 | −0.01 | –
10 | C[C@H](C(=O)O)c1cccc(C(=O)c2ccccc2)c1 [S-(+)-Ketoprofen] | – | – | −0.21 | 1.312 | 0.984 | – | – | – | Cholesterol-free media + simvastatin (0.04 μM) [1, 15]: 0.9554; Complete Media ([1]; drug in complete media): 0.7437; Difference [2, 7]: −0.33
11 | C[S+](CC[C@H](N)C(=O)O)C[C@H]1O[C@@H](n2cnc3c(N)ncnc32)[C@H](O)[C@@H]1O.Cc1ccc(S(=O)(=O)[O-])cc1 (stereo partly drawn) [S-Adenosyl-L-methionine (tosylate)] | 1.239 | 1.842 | – | – | – | 0.8583 | 1.043 | – | Difference [1, 14]: 0.60; Difference [2, 10]: 0.19
12 | O=C1NS(=O)(=O)c2ccccc21 [Saccharin] | 0.8779 | 0.7765 | −0.10 | – | – | 0.9292 | 0.9415 | 0.01 | –
13 | CCOC(=O)[C@H](C)C[C@@H](Cc1ccc(-c2ccccc2)cc1)NC(=O)CCC(=O)O [Sacubitril hemicalcium salt] | – | – | – | – | – | 0.6536 | 1.134 | – | Cholesterol-free media + simvastatin (0.04 μM) [1, 19]: 1.02; Complete Media [1, 20]: 1; Difference [1, 21]: −0.02; Difference [2, 10]: 0.48
14 | CCOC(=O)[C@H](C)C[C@@H](Cc1ccc(-c2ccccc2)cc1)NC(=O)CCC(=O)O [Sacubitril] | – | – | – | 1.009 | 0.7049 | – | – | −0.30 | Cholesterol-free media + simvastatin (0.04 μM) [1, 22]: 1.492; Complete Media [1, 23]: 1.622; Difference [1, 14]: 0.13
15 | C[C@H](NCc1ccc(OCc2cccc(F)c2)cc1)C(N)=O [Safinamide] | – | – | – | – | – | – | – | – | Cholesterol-free media + simvastatin (0.04 μM) [1, 19]: 1.059; Complete Media [1, 20]: 1.012; Difference [1, 21]: −0.05; Difference [2, 24]: −0.13; Cholesterol-free [2, 25]: 1.086; Complete [2, 26]: 0.9537
16 | NC(=O)c1ccccc1O [Salicylamide] | – | – | – | – | – | – | – | – | Cholesterol-free media + simvastatin (0.04 μM) [1, 19]: 1.206; Complete Media [1, 20]: 1.141; Difference [1, 21]: −0.07; Difference [2, 16]: −0.58; Cholesterol-free [2, 17]: 1.486; Complete [2, 18]: 0.907
17 | O=C(Nc1ccccc1)c1ccccc1O [Salicylanilide] | – | – | – | – | – | – | – | – | Cholesterol-free media + simvastatin (0.04 μM) ([1]; cholesterol-free media with simvastatin 0.04 μM, […]): 1.321; Complete Media ([1]; complete media, […]): 1.359; Difference ([1]; complete media minus cholesterol-free media + simvastatin, […]): 0.04; Difference [2, 27]: −0.19; Cholesterol-free [2, 25]: 1.231; Complete [2, 26]: 1.046
18 | O=C(O)c1ccccc1O [Salicylic acid] | 0.9788 | 0.8703 | −0.11 | – | – | – | – | – | Difference [2, 24]: −0.09; Cholesterol-free [2, 25]: 0.9773; Complete [2, 26]: 0.8829
19 | OCc1cc(C(O)CNCCCCCCOCCCCc2ccccc2)ccc1O (stereo not drawn) [Salmeterol (xinafoate)] | 0.9341 | 1.186 | – | 1.696 | 1.368 | – | – | – | Difference [1, 14]: 0.25; Difference [2, 7]: −0.33
20 | OCc1cc(C(O)CNCCCCCCOCCCCc2ccccc2)ccc1O (stereo not drawn) [Salmeterol] | 0.6428 | 0.8345 | – | – | – | 0.865 | 0.8548 | −0.01 | Difference [1, 14]: 0.19
21 | O=C(Oc1ccccc1C(=O)O)c1ccccc1O [Salsalate] | – | – | – | 1.58 | 1.132 | – | – | – | Cholesterol-free media + simvastatin (0.04 μM) [1, 22]: 0.8804; Complete Media [1, 23]: 0.9361; Difference [1, 14]: 0.06; Difference [2, 7]: −0.45
22 | CC1=C2[C@H]3OC(=O)[C@@H](C)[C@@H]3CC[C@@]2(C)C=CC1=O [Santonin] | – | – | – | – | – | – | – | – | Cholesterol-free media + simvastatin (0.04 μM) [1, 15]: 1.229; Complete Media ([1]; drug in complete media): 1.004; Difference ([1]; complete media vs cholesterol-free media + simvastatin (0.04 μM), […]): −0.23; Difference [2, 27]: −0.53; Cholesterol-free [2, 17]: 1.389; Complete [2, 18]: 0.8572
23 | C[C@H](O)[C@H](O)[C@H]1CNc2nc(N)[nH]c(=O)c2N1 [Sapropterin (dihydrochloride)] | – | – | −0.16 | 1.242 | 1.038 | – | – | −0.20 | Cholesterol-free media + simvastatin (0.04 μM) [1, 15]: 1.145; Complete Media ([1]; drug in complete media): 0.9841
